Test results from the NIST ThermoML archive (doi:10.1016/j.jct.2004.12.006).
Numbers after ± are expanded uncertainties.

Tests used:
[1] = Crystal; DTA
[2] = Molar enthalpy of transition or fusion; settings: Crystal; DSC

With `Cl.Cl.Fc1ccc([C@@H]2CCNC[C@H]2COc2ccc3c(c2)OCO3)cc1.Fc1ccc([C@@H]2CCNC[C@H]2COc2ccc3c(c2)OCO3)cc1.O` [paroxetine hydrochloride hemihydrate] as the compound, how does the Normal melting temperature [1] read?
The Normal melting temperature was 126.7 ± 0.7 °C.

What about the “Molar enthalpy of transition or fusion” value [2] of the same compound?
Its value is 34 ± 0.7 kJ/mol.
